Assays:
[1] = system: Human ovarian cancer cell strain OVCAR-8; test: MTT assay, inhibition of tumor cell growth in vitro, 72 h; assay type: cell-based; details: Homo sapiens, OVCAR-8, MTT, read-out: Antitumor proliferative activities of tumor cell (IC50, μM) OVCAR-8
How it was run: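 OVCAR8 cells in RPMI 1640 plus FBS were seeded at 4000 cells/well and exposed for 72 h at 37 °C to compound at 50, 10, 2, 0.4 and 0.08 μM final, with 1% DMSO as blank. Inhibition was calculated from OD relative to control, and IC50 was derived by the Bliss method.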

[2] = system: human colon cancer cell strain HCT-116; test: as above; assay type: cell-based; details: Homo sapiens, HCT-116, MTT, read-out: Antitumor proliferative activities of tumor cell (IC50, μM) HCT-116 (converted)
How it was run: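 Cells in RPMI 1640 with FBS, 4000 cells/well, exposed 72 h at 37 °C, 5% CO2 to final 50, 10, 2, 0.4 and 0.08 μM; 1% DMSO blank. MTT OD gives % inhibition versus control; IC50 derived by Bliss method.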

Akt1 = target: T1, Akt1 (Homo sapiens, UniProt P31749); test: AKT1/PKBα KinEASE FP Fluorescein Green Assay (fluorescence polarization kinase kit); assay type: biochemical; details: 1 h reaction, read-out: Inhibitory activities against Akt1 (IC50)
T1 construct: purchased 32-021
How it was run: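 FP competition kinase assay: compounds (50 μM stock) with STK Substrate 3 and ATP, 1 h reaction at room temperature; stopped with stop/antibody mix, 4 h at room temperature, then polarization read. Inhibition derived from polarization values; IC50 calculated; triplicate wells.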

T1 sequence (P31749 whole entry): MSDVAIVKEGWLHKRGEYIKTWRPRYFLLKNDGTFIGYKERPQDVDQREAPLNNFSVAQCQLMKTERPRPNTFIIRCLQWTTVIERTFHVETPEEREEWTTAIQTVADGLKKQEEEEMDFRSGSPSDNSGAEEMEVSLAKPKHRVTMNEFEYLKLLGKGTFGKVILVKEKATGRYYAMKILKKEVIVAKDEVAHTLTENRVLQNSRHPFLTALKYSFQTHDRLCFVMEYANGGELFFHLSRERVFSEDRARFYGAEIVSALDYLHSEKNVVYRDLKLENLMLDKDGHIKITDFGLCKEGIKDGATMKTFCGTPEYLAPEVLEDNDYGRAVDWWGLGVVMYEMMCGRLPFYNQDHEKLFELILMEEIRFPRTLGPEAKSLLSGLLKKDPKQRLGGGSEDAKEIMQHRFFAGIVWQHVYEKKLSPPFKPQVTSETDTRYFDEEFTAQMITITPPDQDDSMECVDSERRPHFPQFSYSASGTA

IC50 [1]	IC50 [2]	IC50 (Akt1)	Structure (SMILES)
7.89 µM	5.82 µM	0.008 µM	Cn1ncc(Cl)c1-c1cnc(C(=O)N[C@@H]2CNCC[C@H]2c2ccc(F)c(F)c2)nc1 [Compound 93, 5-(4-chloro-1-methyl-1H-pyrazol-5-yl)-N-((3S,4S)-4-(3,4-difluorophenyl)piperidin-3-yl)pyrimidine-2-formamide]
1.62 µM	3.09 µM	0.002 µM	Cn1ncc(C(=O)O)c1-c1ccc(C(=O)N[C@@H]2CNCC[C@H]2c2cccc(F)c2)s1 [Compound 142]
1.2 µM	0.8 µM	0.012 µM	C[C@H]1CNC[C@@H](NC(=O)c2cc(-c3c(Cl)cnn3C)c(Cl)s2)[C@@H]1c1cccc(F)c1 [Compound 135, 5-chloro-4-(4-chloro-1-methyl-1H-pyrazol-5-yl)-N-((3S, 4S, 5R)-4-(3-fluorophenyl)-5-methylpiperidin-3-yl)thiophene-2-formamide]
0.09 µM	0.07 µM	0.0001 µM	Cn1ncc(Cl)c1-c1cc(C(=O)N[C@@H]2CNC(CCNCC(O)CO)C[C@H]2c2ccc(Cl)c(Cl)c2)oc1Cl (stereo partly drawn) [Compound 123, 5-chloro-4-(4-chloro-1-methyl-1H-pyrazol-5-yl)-N-((3S,4S)-4-(3,4-dichlorophenyl)-6-(2-((2,3-dihydroxypropyl)amido)ethyl)piperidin-3-yl)furan-2-formamide]
1.52 µM	2.5 µM	0.001 µM	CCC[C@H]1CNC[C@@H](NC(=O)c2ccc(-c3c(Cl)cnn3C)s2)[C@@H]1c1cccc(F)c1 [Compound 151, 5-(4-chloro-1-methyl-1H-pyrazol-5-yl)-N-((3S, 4S, 5R)-4-(3-fluorophenyl)-5-propylpiperidin-3-yl)thiophene-2-formamide]
1.56 µM	1.1 µM	0.014 µM	Cn1ncc(Cl)c1-c1cc(C(=O)N[C@@H]2CNC(CCN3CCC(O)CC3)C[C@H]2c2ccc(Cl)c(Cl)c2)oc1Cl (stereo partly drawn) [Compound 114, 5-chloro-4-(4-chloro-1-methyl-1H-pyrazol-5-yl)-N-((3S,4S)-4-(3,4-dichlorophenyl)-6-(2-(4-hydroxylpiperidin-1-yl)ethyl)piperidin-3-yl)furan-2-formamide]
4.69 µM	0.92 µM	0.0008 µM	CC(=O)OCCC1C[C@@H](c2ccc(F)c(F)c2)[C@H](NC(=O)c2cc(-c3c(Cl)cnn3C)c(Cl)o2)CN1 (stereo partly drawn) [Compound 131, 2-((4S,5S)-5-(5-chloro-4-(4-chloro-1-methyl-1H-pyrazol-5-yl)furan-2-formamido)-4-(3,4-difluorophenyl)piperidin-2-yl)ethylacetate]
1.02 µM	2.51 µM	0.002 µM	C=CCC1C[C@@H](c2ccc(Cl)c(Cl)c2)[C@H](NC(=O)c2cc(-c3c(Cl)cnn3C)c(Cl)o2)CN1 (stereo partly drawn) [Compound 106, N-((3S,4S)-6-allyl-4-(3,4-dichlorophenyl)piperidin-3-yl)-5-chloro-4-(4-chloro-1-methyl-1H-pyrazol-5-yl)furan-2-formamide]
0.45 µM	0.44 µM	0.003 µM	Cn1ncc(Cl)c1-c1cc(C(=O)N[C@@H]2CNC(CC(=O)NC3CCC3)C[C@H]2c2ccc(Cl)c(Cl)c2)oc1Cl (stereo partly drawn) [Compound 120, 5-chloro-4-(4-chloro-1-methyl-1H-pyrazol-5-yl)-N-((3S,4S)-6-(2-(cyclobutylamido)-2-oxoethyl)-4-(3,4-dichlorophenyl)piperidin-3-yl)furan-2-formamide]

The remaining lines, values behind:

Structure (SMILES)	IC50 [1]	IC50 [2]	IC50 (Akt1)
Cn1nccc1-c1coc(C(=O)N[C@H]2CNCC[C@@H]2c2ccc(F)c(F)c2)c1 (racemic) [Compound 21, 4-(1-methyl-1H-pyrazol-5-yl)-N-(3,4-trans-4-(3,4-difluorophenyl)piperidin-3-yl)furan-2-formamide]	10.7 µM	21 µM	0.119 µM
CCc1sc(C(=O)N[C@H]2CNCC[C@@H]2c2cnc3ccccc3c2)cc1-c1c(C(C)C)cnn1C (racemic) [Compound 9]	0.94 µM	2.35 µM	0.088 µM
Cn1ncc(Cl)c1-c1cnc(C(=O)N[C@@H]2CNCC[C@H]2c2cccc(F)c2)cc1Cl [Compound 92, 4-chloro-5-(4-chloro-1-methyl-1H-pyrazol-5-yl)-N-((3S,4S)-4-(3-fluorophenyl)piperidin-3-yl)picolinamide]	1.07 µM	1.25 µM	0.016 µM
CCc1cnn(C)c1-c1cc(C(=O)N[C@H]2CNCC[C@@H]2c2ccc(Cl)cc2)nc(C)n1 (racemic) [Compound 47, 2-methyl-6-(1-methyl-4-ethyl-1H-pyrazol-5-yl)-N-(3,4-trans-4-(4-chlorophenyl)piperidin-3-yl)pyrimidine-4-formamide]	5.57 µM	3.11 µM	0.216 µM
Cc1cc(-c2c(Cl)cnn2C)cc(C(=O)N[C@H]2CNCC[C@@H]2c2ccccc2)n1 (relative stereo) [Compound 45, 6-methyl-4-(4-chloro-1-methyl-1H-pyrazol-5-yl)-N-(3,4-trans-4-phenylpiperidin-3-yl)pyridinyl-2-formamide]	2.01 µM	12.6 µM	0.812 µM
Cn1ncc(Cl)c1-c1ccc(C(=O)N[C@@H]2CNCC[C@H]2c2ccc(Cl)cc2)cc1C#N [Compound 76, 4-(4-chloro-1-methyl-1H-pyrazol-5-yl)-N-((3S,4S)-4-(4-chlorophenyl)piperidin-3-yl)-3-cyanobenzamide]	2.54 µM	1.56 µM	0.021 µM
Cn1ncc(Cl)c1-c1ccc(C(=O)N[C@@H]2CNCC[C@H]2c2ccc(F)c(F)c2)cc1-c1ccoc1 [Compound 87, 4-(4-chloro-1-methyl-1H-pyrazol-5-yl)-N-((3S,4S)-4-(3,4-difluorophenyl)piperidin-3-yl)-3-(furan-3-yl)benzamide]	2.43 µM	5.63 µM	0.01 µM
Cn1ncc(Cl)c1-c1cc(C(=O)N[C@H]2CNCC[C@@H]2c2ccc(C(F)(F)F)cc2)oc1Cl (racemic) [Compound 30, 5-chloro-4-(4-chloro-1-methyl-1H-pyrazol-5-yl)-N-(3,4-trans-4-(4-trifluoromethylphenyl)piperidin-3-yl)furan-2-formamide]	1.01 µM	21.6 µM	0.092 µM
Cc1cnn(C)c1-c1cnc(C(=O)N[C@H]2CNCC[C@@H]2c2ccc(F)c(F)c2)cc1F [Compound 61, 4-fluoro-5-(1,4-dimethyl-1H-pyrazol-5-yl)-N-((3R,4R)-4-(3,4-difluorophenyl)piperidin-3-yl)pyridinyl-2-formamide]	8.44 µM	3.85 µM	0.188 µM
Cc1nc(C(=O)N[C@H]2CNCC[C@@H]2C2CCCNC2)ccc1-c1c(Br)cnn1C (mixture of isomers) [Compound 59, 6-methyl-5-(4-bromo-1-methyl-1H-pyrazol-5-yl)-N-(3,4-trans-4-(piperidin-3-yl)piperidin-3-yl)pyridinyl-2-formamide]	7.88 µM	8.33 µM	0.142 µM
Cc1sc(C(=O)N[C@H]2CNCC[C@@H]2c2ccc(F)c(F)c2)nc1-c1c(Cl)cnn1C (racemic) [Compound 20, 4-(4-chloro-1-methyl-1H-pyrazol-5-yl)-N-(3,4-trans-4-(3,4-difluorophenyl)piperidin-3-yl)-5-methylthiazole-2-formamide]	9.91 µM	2.11 µM	0.012 µM
Cn1ncc(Cl)c1-c1ccc(C(=O)N[C@@H]2CNCC[C@H]2c2cccc(F)c2)cc1 [Compound 73, 4-(4-chloro-1-methyl-1H-pyrazol-5-yl)-N-((3S,4S)-4-(3-fluorophenyl)piperidin-3-yl)benzamide]	2.45 µM	1.21 µM	0.007 µM
Cn1ncc(Br)c1-c1coc(C(=O)N[C@H]2CNCC[C@@H]2c2ccc(Cl)cc2)c1 (racemic) [Compound 26, 4-(4-bromo-1-methyl-1H-pyrazol-5-yl)-N-(3,4-trans-4-(4-chlorphenyl)piperidin-3-yl)furan-2-formamide]	4.89 µM	2.16 µM	0.034 µM
Cn1ncc(Cl)c1-c1ccc(C(=O)N[C@@H]2CNCC[C@H]2c2ccc(Cl)cc2)c(C(F)(F)F)c1 [Compound 80, 4-(4-chloro-1-methyl-1H-pyrazol-5-yl)-N-((3S,4S)-4-(4-chlorophenyl)piperidin-3-yl)-2-(trifluoromethyl)benzamide]	0.94 µM	2.51 µM	0.001 µM
CC1CCC([C@H]2CCNC[C@@H]2NC(=O)c2ncc(-c3c(Cl)cnn3C)c(Cl)n2)CC1 (stereo partly drawn) [Compound 55, 4-chloro-5-(4-chloro-1-methyl-1H-pyrazol-5-yl)-N-(3,4-trans-4-(4-methylcyclohexane)piperidin-3-yl)pyrimidine-2-formamide]	5.79 µM	10.8 µM	0.048 µM
Cc1cc(C(=O)N[C@@H]2CNCC[C@H]2c2ccc(Cl)c(C(F)(F)F)c2)ccc1-c1c(Cl)cnn1C [Compound 74, 4-(4-chloro-1-methyl-1H-pyrazol-5-yl)-N-((3S,4S)-4-(4-chloro-3-(trifluoromethyl)phenyl)piperidin-3-yl)-3-methylbenzamide]	1.3 µM	0.42 µM	0.014 µM

Reference: patent publication US10233180B2, “Substituted nitrogen-containing heterocyclic derivatives, pharmaceutical compositions comprising the same and applications of antitumor thereof” (ZHEJIANG UNIVERSITY, priority 2014, dated 2019)
